Structures are written as SMILES.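 Assay format: 96-well plates, 48-hour exposure. TGI denotes the concentration required for complete inhibition of growth.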 Where only a bound is given, the exact number is not on record here.

Holding throughout (assay): growth of human tumour cells (NCI), 48 h
The subject of experiment [1] is HOP-62 NSCLC.
The test system of experiment [2] is NCI/ADR-RES ovarian.
Experiment [3] relates to MOLT-4 leukemia.
In experiment [4] the test system is MDA-MB-435.
Experiment [5] has as its system DU-145 prostate.
Experiment [6] concerns OVCAR-3 ovarian.
The subject of experiment [7] is SF-539 CNS.
The subject of experiment [8] is SF-268 CNS.

For `CC(=O)N1C(C(=O)NNc2ccccc2)CSC1c1ccccc1` (stereo unspecified), the TGI in experiment [1], in experiment [2], in experiment [3], in experiment [4], in experiment [5] and in experiment [6] was over 100 µM in each case. In addition, the TGI in experiment [7] and in experiment [8] was over 100 µM each time.
For the compound `C[C@@H]1OC(=O)C[C@H]2CC(=O)N(CCC3CN(S(=O)(=O)C(F)(F)F)c4ccc(Cc5ccc6c(c5)C(CCN5C[C@H]7[C@@H](CC(=O)O[C@H]7C)CC5=O)CN6S(=O)(=O)C(F)(F)F)cc43)C[C@@H]21` (stereo partly specified), the TGI in experiment [1], in experiment [2], in experiment [3], in experiment [4], in experiment [5] and in experiment [6] was over 100 µM each time. Further, the TGI is 1.84 µM in experiment [7] and over 100 µM in experiment [8].
With `Cc1cc(N(CCC#N)CCC#N)ccc1/C(N=Nc1ccccc1)=N\NC(=O)c1ccccc1`, the TGI in experiment [1] was over 100 µM; in experiment [2], 75.5 µM; in experiment [3] it was 64.5 µM; in experiment [4] it was over 100 µM; in experiment [5], over 100 µM; in experiment [6], over 100 µM. Besides, the TGI in experiment [7] was 54.1 µM; in experiment [8], over 100 µM.
Consider `CC(C)/C(Cl)=N\OC(=O)Nc1ccc(F)c([N+](=O)[O-])c1`, for which the TGI in experiment [1] was 32 µM; in experiment [2], 35.2 µM; in experiment [3], 4.94 µM; in experiment [4], 26 µM; in experiment [5], 32.8 µM; in experiment [6], 27.2 µM. For the same compound, the TGI worked out at 7.82 µM in experiment [7] and 27.6 µM in experiment [8].
`CC(=O)O[C@H]1[C@@H](OC2CCCC2(c2ccccc2)c2ccccc2)O[N+]([O-])=C[C@@]12COCc1cc3c(cc12)OCO3` (stereo partly specified): the TGI is 7.67 µM in experiment [1]; 14.9 µM in experiment [2]; over 22.9 µM in experiment [3]; 14.3 µM in experiment [4]; over 100 µM in experiment [5]; 4.71 µM in experiment [6]. Besides, the TGI was over 100 µM in experiment [7] and 14.4 µM in experiment [8].
Take `O=c1[nH]c(=O)n(C2OC(CO)C(O)C2O)cc1OCCc1ccccc1` (stereo unspecified): the TGI in experiment [1], in experiment [2], in experiment [3], in experiment [4], in experiment [5] and in experiment [6] was over 100 µM each time. The TGI in experiment [7] and in experiment [8] was over 100 µM each time.
Take `CC1(C)CCCCCC(C)(CCCCCCCCCCCO)C1=O` (stereo unspecified): the TGI stood at 31.6 µM in experiment [1]; 27 µM in experiment [2]; 46.3 µM in experiment [3]; 30.9 µM in experiment [4]; 31.8 µM in experiment [5]; 29.9 µM in experiment [6]. Besides, the TGI in experiment [7] turned out to be 30.9 µM; in experiment [8] it was 30.2 µM.
With `O=C(Nc1nncs1)NS(=O)(=O)n1cnc2ccccc21`, the TGI in experiment [1], in experiment [2], in experiment [3], in experiment [4], in experiment [5] and in experiment [6] was over 100 µM each time. Also, the TGI in experiment [7] and in experiment [8] was over 100 µM each time.
With `BrCCC[P+](c1ccccc1)(c1ccccc1)c1ccccc1`, the TGI in experiment [1] is over 100 µM; in experiment [2], over 100 µM; in experiment [3], over 94.6 µM; in experiment [4] it was over 51.8 µM; in experiment [5], over 100 µM; in experiment [6] it was 38.6 µM. Besides, the TGI in experiment [7] and in experiment [8] was over 100 µM in each case.
On to `COC1=CC(=O)c2c(O)ccc(O)c2C1=O`, for which the TGI in experiment [1] worked out at 10.9 µM; in experiment [2], 60.2 µM; in experiment [3] it was 44.3 µM; in experiment [4] it was 1.34 µM; in experiment [5] it was 3.18 µM; in experiment [6] it was 5.03 µM. In addition, the TGI in experiment [7] was determined as 10.4 µM; in experiment [8] it was 17.9 µM.
In the case of `COP(=O)(OC)C(O)/C=C(\Cl)c1ccc(Cl)cc1` (stereo unspecified), the TGI in experiment [1] is over 100 µM; in experiment [2], 55.7 µM; in experiment [3] it was 86.1 µM; in experiment [4], over 100 µM; in experiment [5], over 100 µM; in experiment [6], 43.3 µM. The TGI in experiment [7] and in experiment [8] was over 100 µM in each case.
As to `COc1cc(C=Nc2ccc(S(N)(=O)=O)cc2)cc(OC)c1`, the TGI in experiment [1] was over 50 µM; in experiment [2], over 50 µM; in experiment [3] it was over 50 µM; in experiment [4], 49.3 µM; in experiment [5], over 50 µM; in experiment [6] it was over 50 µM. Moreover, the TGI in experiment [7] and in experiment [8] was over 50 µM in each case.
Consider `O=c1c2ccccc2c2c1c1c3ccccc3c(=O)c1c1c3ccccc3c(=O)c21`, for which the TGI in experiment [1], in experiment [2], in experiment [3], in experiment [4], in experiment [5] and in experiment [6] was over 100 µM in each case. Also, the TGI in experiment [7] and in experiment [8] was over 100 µM throughout.
Take `c1ccc(/N=N\Nc2ccc(-c3nc4ccccc4o3)cc2)nc1`: the TGI is over 100 µM in experiment [1]; over 100 µM in experiment [2]; 61.1 µM in experiment [3]; over 100 µM in experiment [4]; over 100 µM in experiment [5]; over 100 µM in experiment [6]. Besides, the TGI in experiment [7] and in experiment [8] was over 100 µM each time.
For the compound `COc1cc(CNC(=O)[C@H](Cc2ccc(O)cn2)NC(C)=O)cc(OC)c1`, the TGI in experiment [1], in experiment [2], in experiment [3], in experiment [4], in experiment [5] and in experiment [6] was over 100 µM throughout. For the same compound, the TGI in experiment [7] and in experiment [8] was over 100 µM in each case.
With `O=Cc1[nH]c(=O)[nH]c(=O)c1CCl`, the TGI in experiment [1], in experiment [2], in experiment [3], in experiment [4], in experiment [5] and in experiment [6] was over 100 µM each time. Also, the TGI in experiment [7] and in experiment [8] was over 100 µM each time.
On to `CCOC(=O)NC(NNc1ccc([N+](=O)[O-])cc1[N+](=O)[O-])(C(F)(F)F)C(F)(F)F`, for which the TGI in experiment [1], in experiment [2], in experiment [3], in experiment [4], in experiment [5] and in experiment [6] was over 100 µM throughout. Besides, the TGI in experiment [7] is 74.3 µM; in experiment [8], over 100 µM.
Turning to `CCOC(=O)/C=C(\C(=O)OCC)n1cnc2c(N)ncnc21`, the TGI in experiment [1] stood at 39.8 µM; in experiment [2], 37 µM; in experiment [3], 6.89 µM; in experiment [4], 24.7 µM; in experiment [5], 29.1 µM; in experiment [6], 21.4 µM. In addition, the values for the TGI in experiment [7] and in experiment [8] were 29.3 µM and 37.6 µM, respectively.
Regarding `OCCCCn1cc(Cn2ncc3c(SCc4ccccc4)ncnc32)nn1`, the TGI in experiment [1] is over 100 µM; in experiment [2] it was over 100 µM; in experiment [3] it was 77.3 µM; in experiment [4], over 100 µM; in experiment [5], over 100 µM; in experiment [6], over 100 µM. The TGI in experiment [7] and in experiment [8] was over 100 µM in each case.
Regarding `COc1ccc(/C=C(\C(=O)OCC(C)C)c2ccc(OC)c(OC)c2)cc1OC`, the TGI in experiment [1], in experiment [2], in experiment [3], in experiment [4], in experiment [5] and in experiment [6] was over 100 µM in each case. For the same compound, the TGI in experiment [7] and in experiment [8] was over 100 µM each time.
Regarding `O=C1OC2c3ccccc3C(=O)C2(c2ccccc2)N1c1ccccc1` (stereo unspecified), the TGI in experiment [1], in experiment [2], in experiment [3], in experiment [4], in experiment [5] and in experiment [6] was over 200 µM throughout. Further, the TGI in experiment [7] and in experiment [8] was over 200 µM throughout.
In the case of `O=C1N(CN2CCOCC2)CN(CN2CCOCC2)C(=O)N1Cc1ccccc1`, the TGI in experiment [1] was over 100 µM; in experiment [2], 61.7 µM; in experiment [3], 39.3 µM; in experiment [4], 38 µM; in experiment [5], 63.9 µM; in experiment [6], 59.7 µM. Further, the TGI in experiment [7] was determined as 38.9 µM; in experiment [8], 53.1 µM.
For `Cc1nc(N)c(N2CCN(Cc3ccccc3)CC2)c(=O)[nH]1`, the TGI in experiment [1], in experiment [2], in experiment [3], in experiment [4], in experiment [5] and in experiment [6] was over 100 µM in each case. The TGI in experiment [7] and in experiment [8] was over 100 µM in each case.
Regarding `O=C1/C(=C/c2ccc(Cl)cc2)N=C(c2ccccc2)N1C1Nc2cc3c(cc2S1)NC(N1C(=O)/C(=C/c2ccc(Cl)cc2)N=C1c1ccccc1)S3` (stereo unspecified), the TGI in experiment [1], in experiment [2], in experiment [3], in experiment [4], in experiment [5] and in experiment [6] was over 100 µM each time. Further, the TGI in experiment [7] and in experiment [8] was over 100 µM in each case.
In the case of `O=C1c2ccccc2C(=O)c2c1oc(=O)c1ccccc21`, the TGI in experiment [1] was found to be 24.6 µM; in experiment [2], 10.2 µM; in experiment [3] it was 12.5 µM; in experiment [4], 3.61 µM; in experiment [5], 14 µM; in experiment [6] it was 3.61 µM. In addition, the TGI was over 25 µM in experiment [7] and 19.7 µM in experiment [8].
As for `COc1ccc(-c2oc3cc(OC)c(OC)c(OC)c3c(=O)c2OC)cc1OC`, the TGI in experiment [1], in experiment [2], in experiment [3], in experiment [4], in experiment [5] and in experiment [6] was over 100 µM in each case. Further, the TGI in experiment [7] and in experiment [8] was over 100 µM in each case.
In the case of `O=C1C=CC[C@H](/C=C/C[C@@H](O)C[C@H](O)/C=C/c2ccccc2)O1`, the TGI in experiment [1] stood at 30.9 µM; in experiment [2] it was 65.3 µM; in experiment [3] it was 39.6 µM; in experiment [4], 23.4 µM; in experiment [5], 26.3 µM; in experiment [6], 23.7 µM. Also, the TGI was found to be 21.5 µM in experiment [7] and 37.7 µM in experiment [8].
`COc1cc(-c2c3c([nH]c(=O)c2C#N)-c2cc([N+](=O)[O-])ccc2CCC3)cc(OC)c1OC`: the TGI in experiment [1] is 92.2 µM; in experiment [2], over 100 µM; in experiment [3], over 100 µM; in experiment [4] it was over 100 µM; in experiment [5] it was over 100 µM; in experiment [6] it was 46.3 µM. Also, the TGI in experiment [7] and in experiment [8] was over 100 µM in each case.
For `COc1cc(S(=O)(=O)Nc2ccc(-c3csc(N4C(=O)C(C)SC4c4ccccc4O)n3)cc2)ccc1Cl` (stereo unspecified), the TGI in experiment [1], in experiment [2], in experiment [3], in experiment [4], in experiment [5] and in experiment [6] was over 100 µM throughout. In addition, the TGI in experiment [7] was over 100 µM; in experiment [8], 49.9 µM.
Regarding `COc1ccc(C(=O)Cn2c(C(C)=O)nc3ccccc32)cc1`, the TGI in experiment [1] was 65.7 µM; in experiment [2] it was over 100 µM; in experiment [3] it was over 100 µM; in experiment [4], over 100 µM; in experiment [5], over 100 µM; in experiment [6], over 100 µM. Also, the TGI in experiment [7] and in experiment [8] was over 100 µM throughout.
Consider `O/N=C1/CCCCCC1NO` (stereo unspecified), for which the TGI in experiment [1], in experiment [2], in experiment [3], in experiment [4], in experiment [5] and in experiment [6] was over 100 µM in each case. Also, the TGI in experiment [7] and in experiment [8] was over 100 µM throughout.
Regarding `O=c1oc2cccnc2n1CCN1CCN(c2ccc(Oc3ccccc3)cc2)CC1`, the TGI in experiment [1], in experiment [2], in experiment [3], in experiment [4], in experiment [5] and in experiment [6] was over 100 µM in each case. The TGI in experiment [7] and in experiment [8] was over 100 µM in each case.

The values are drawn from PubChem BioAssay (NCI).
